Laboratory results published in article PMC4712073 (Analytical and bioanalytical chemistry, 2015).
Read-outs that look alike come from different tables or passages of the source. Values belong to the molecule of their own block, whether it stands above or below them.

Legend:
SIRT5 [1] = biological target: T1, SIRT5 (Homo sapiens, UniProt Q9NXA8); assay: Peptide-based SIRT5 desuccinylation assay by droplet microchip electrophoresis; assay type: biochemical
T1 sequence (Q9NXA8 37-310): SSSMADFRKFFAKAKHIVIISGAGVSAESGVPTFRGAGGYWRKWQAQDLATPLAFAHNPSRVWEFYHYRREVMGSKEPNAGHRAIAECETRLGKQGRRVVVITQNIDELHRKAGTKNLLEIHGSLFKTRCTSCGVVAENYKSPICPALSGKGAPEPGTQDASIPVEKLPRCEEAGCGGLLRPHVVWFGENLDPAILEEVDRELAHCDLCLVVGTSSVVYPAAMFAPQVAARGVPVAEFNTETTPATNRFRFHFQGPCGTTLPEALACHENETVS

SIRT5 [2] = biological target: T1, SIRT5; conditions: reported as SIRT5 inhibitor; cited from earlier work

SIRT5 inhibition (in words) (SIRT5 [1]; pilot screening, chosen as positive control (10 µM)): potent inhibitor
SMILES: CCCCCCCCCCCCCCCc1cccc(O)c1C(=O)O [anacardic acid]

SMILES: CCCCCC[C@H]1C(=O)O[C@H](C)[C@H](NC(=O)c2cccc(NC=O)c2O)C(=O)O[C@@H](C)[C@@H]1OC(=O)CC(C)C [antimycin A]
IC50 (SIRT5 [1]; Prestwick hits, dose-response analysis 0.1 to 100 µM): near the maximum tested dose

SMILES: N#C/C(=C\c1ccc(-c2cc(Cl)ccc2Cl)o1)C(=O)Nc1cccc2ncccc12 [AGK-2]
IC50 (SIRT5 [2]): > 100 µM
